Assay results from patent publication US6696466B1, “Methods of treating select neuronal inflammatory disorders using hydroxyalkylquinolines” (priority 2000, dated 2004).
“And” between values parts separate entries of the source, which are not always exact repeats. Equal entries are not always repeated. “Also recorded” adds a separate entry of the source.

Tests used:
Type in all cases: in vivo, human
[1] = system: Herpes simplex I and II (HSV I and II); assay: Treatment and suppression of cold sores in patients; conditions: for time to resolution of cold sore: Singulair resumed vs the patient's previous sores treated with antivirals
Procedure: Patient had recently discontinued use of Singulair® as a treatment for asthma. […] The cold sore resolved in three days after treatment with Singulair® was resumed. The rate of resolution was faster than the resolution of previous sores which were treated with antiviral treatments such as those marketed under the trademarks Zovirax® or Famvir® (approximately seven to ten days). During the subsequent two years, patient took Singulair® on a daily basis (10 mg, twice a day).
No cold sore was present at the time therapy was started. […] Within five days of termination of treatment, a cold sore developed.

carpal tunnel syndrome = assay: Treatment of patients with carpal tunnel syndrome; conditions: for carpal tunnel symptoms, response to treatment: 10 mg per day, taken orally
Procedure: A carpenter who was experiencing the symptoms of carpal tunnel syndrome was treated with 10 mg of Singulair® per day, taken orally, for four weeks. They continued to perform their daily occupational activities throughout the period of treatment. […] Patient was then treated for short courses of 10 mg of Singulair® per day, whenever symptoms were present, until symptoms subsided.
A patient who worked as a billing clerk had carpal tunnel symptoms which had not responded to non-surgical methods of treatment. Patient was treated with Singulair® at 10 mg daily, taken orally.
A patient who works as a data entry clerk, experienced severe carpal tunnel symptoms. They ceased their occupational activities and began treatment with Singulair® at 10 mg per day, taken orally.
Patient was an insurance clerk who experienced severe carpal tunnel symptoms which had not abated, even after carpal tunnel decompression surgery. For years following surgery, they had experienced severe carpal tunnel symptoms.
Patient was an assembly line worker at an automobile production facility who was experiencing symptoms of carpal tunnel syndrome was treated with 10 mg of Singulair® per day taken orally. […] They required continuous treatment with 10 mg of Singulair® per day taken orally to maintain remission of their symptoms.

cubital tunnel syndrome = assay: Treatment of a patient with cubital tunnel syndrome; conditions: 10 mg daily, taken orally, four weeks; single patient, prior NSAIDs and splints failed
Procedure: Patient was a golfer who experienced symptoms of cubital tunnel syndrome. […] Patient was treated with Singulair® at 10 mg daily, taken orally. […] No further treatment was required despite their return to their regular golfing activity.

thoracic outlet syndrome = assay: Treatment of a patient with thoracic outlet syndrome; conditions: 10 mg per day, taken orally, four weeks; single patient
Procedure: Patient was treated with Singulair® at 10 mg per day taken orally. […] No further treatment was required.

[2] = system: post-herpetic neuralgia due to a latent Herpes infection; assay: Treatment of post-herpetic neuralgia in patients; conditions: 10 mg per day, taken orally; single patient, neuralgia developed despite initial anti-viral agents
Procedure: (§1) Patient had post-herpetic neuralgia due to a latent Herpes infection. Neuralgia developed despite initial treatment with anti-viral agents as per standard treatment recommendations. Patient began treatment with Singulair® (10 mg per day, taken orally). The post-herpetic neuralgia resolved in ten days. No further treatment was required.
as §1, with “had postherpetic” for “had post-herpetic”, “in 14” for “in ten”

[3] = system: natural graying process of scalp hair; assay: Inhibition of graying of scalp hair in a patient; conditions: 10 mg per day, taken orally, two years and four months continuous; single patient with graying of temple regions
Description: Patient had noted the onset of graying of the temple regions of their hair.

Row | SMILES | time to resolution of cold sore ([1]; single patient) | carpal tunnel symptoms, response to treatment (carpal tunnel syndrome; four weeks, single patient) | carpal tunnel symptoms, response to treatment (carpal tunnel syndrome; six weeks, single patient, occupational activities continued) | carpal tunnel symptoms after cessation of treatment (carpal tunnel syndrome; after treatment was stopped, single patient) | carpal tunnel symptoms at follow-up (carpal tunnel syndrome; follow-up as in each example: forty weeks (Ex. 2), recheck two weeks after return to work on treatment (Ex. 3), continuing treatment (Ex. 4)) | carpal tunnel symptoms on resumption of treatment (carpal tunnel syndrome; treatment resumed after relapse, single patient) | cubital tunnel symptoms, response to treatment (cubital tunnel syndrome) | thoracic outlet syndrome symptoms, response to treatment (thoracic outlet syndrome) | cold sores under continuous daily treatment ([1]; 10 mg per day orally, ten months, patient with history of average two cold sores per month) | development of new cold sore under daily treatment ([1]; 10 mg, twice a day, two years, high ultraviolet light exposure, single patient) | time to cold sore after termination of treatment ([1]; after ten months of treatment, same patient) | cold sores after resumption of treatment ([1]; thirteen months after resumption of treatment, same patient) | time to resolution of post-herpetic neuralgia [2] | progression of graying of scalp hair [3]
1 | CC(=O)OCC(CCn1cnc2cnc(N)nc21)COC(C)=O [Famvir®] | seven to ten | – | – | – | – | – | – | – | – | – | – | – | – | –
2 | CC(C)(O)c1ccccc1CC[C@@H](SCC1(CC(=O)O)CC1)c1cccc(C=Cc2ccc3ccc(Cl)cc3n2)c1 [Singulair®, 1-(((1(R)-(3-(2-(7-chloro-2-quinolinyl)ethenyl)phenyl)-3-(2-(2-hydroxy-2-propyl)phenyl)propyl)thio)methyl)cyclopropaneacetic acid] | three | complete remission of symptoms; also recorded: symptoms had completely resolved | complete resolution of their carpal tunnel symptoms; also recorded: symptoms abated | the symptoms recurred; also recorded: remained symptom-free thereafter; also recorded: symptoms rapidly returned | remains symptom-free | Symptoms abated | Symptoms were entirely abated | symptoms had completely resolved | remained free of cold sores | no new sore developed | five | remained free of cold sores | ten and 14 days | No progression of the graying process
3 | Nc1nc2c(ncn2COCCO)c(=O)[nH]1 [Zovirax®] | seven to ten | – | – | – | – | – | – | – | – | – | – | – | – | –
